Experimental data from patent publication US8513440B2, “Compositions and methods comprising analogues of radicicol A” (Universite de Strasbourg, priority 2007, dated 2013).
“Also recorded” adds a separate entry of the source. One block for each compound: values may come before it.

Legend:
[1] = target: T1, VEGF-R2 (Homo sapiens, UniProt P35968); experiment: VEGF-R2 autophosphorylation in presence of VEGF165 in immortalized HUVECs (ELISA); format: cell-based; details: 90 min incubation, then VEGF165 for 7 min, read-out: cellular IC50, VEGF-R2 autophosphorylation
Experimental: The potential efficacy of Compound 31 in vivo was assessed by measuring the level of VEGF-R2 autophosphorylation in the presence of its ligand (VEGF165). Thus immortalized HUVECs known to express high levels of VEGF-R2 were incubated with inhibitor 31 for 90 min. and then stimulated with VEGF165 for 7 min. The level of autophosphorylation was measured by ELISA using antiVEGF-R2 as capture antibody and anti-phosphotyrosine as detection antibody. Results are expressed as percentage of maximal autophosphorylation in the absence of inhibitor (FIGS. 1 and 2).
A number of RALs such as pochonins C and D are substituted with a chlorine atom at the 5 position rather than a methoxy, as with analogue 31. […] The potential efficacy of this compound in vivo was then assessed by measuring the level of VEGF-R2 autophosphorylation in the presence of its ligand (VEGF165). […] The level of autophosphorylation was measured by ELISA using antiVEGF-R2 as capture antibody and anti-phosphotyrosine as detection antibody. Results are expressed as percentage of maximal autophosphorylation in the absence of inhibitor (FIG. 3).
The potential efficacy of compound 31 in vivo was assessed by measuring the level of VEGF-R2 autophosphorylation in the presence of its ligand (VEGF165). […] The level of autophosphorylation was measured by ELISA using antiVEGF-R2 as capture antibody and anti-phosphotyrosine as detection antibody. […]

[2] = target: T2, MEK1 (Homo sapiens, UniProt Q02750); experiment: panel of 127 kinases, radiometric protein kinase assay; format: biochemical; details: FIG. 1, result in words
T2 construct: made in house; host or cells: Sf9 insect cells (baculovirus)
Excerpt: (§1) All protein kinases were expressed in Sf9 insect cells as human recombinant GST-fusion proteins or His-tagged proteins by means of the baculovirus expression system. Kinases were purified by affinity chromatography using either GSH-agarose (Sigma) or Ni-NTH-agarose (Qiagen). The purity of each kinase was checked by SDS-PAGE/silver staining and the identity of each kinase was verified by western blot analysis with kinase specific antibodies or by mass spectroscopy.
(§2) A radiometric protein kinase assay (^33PanQinase® Activity Assay) was used for measuring the kinase activity of the 24 protein kinases. All kinase assays were performed in 96-well FIashPlates™ from Perkin Elmer (Boston, Mass., USA) in a 50 μl reaction volume. The reaction cocktail was pipetted in 4 steps in the following order: • 20 μl of assay buffer • 5 μl of ATP solution (in H2O) • 5 μl of test compound (in 10% DMSO) • 10 μl of substrate/10 μl of enzyme solution (premixed)
(§3) The assay for all enzymes contained 60 mM HEPES-NaOH, pH 7.5, 3 mM MgCl2, 3 mM MnCl2, 3 μM Na-orthovanadate, 1.2 mM DTT, 50 μg/ml PEG20000, 1 μM [γ-^33P]-ATP (approx. 5×10^05 cpm per well).
(§4) The reaction cocktails were incubated at 30° C. for 80 minutes. […] Incorporation of ^33Pi was determined with a microplate scintillation counter (Microbeta Trilux, Wallac). […]
(§5) Using the same method described above, compound 31 was evaluated in a panel of 127 kinase enzymes.

[3] = target: T3, PDGFR-α (Homo sapiens, UniProt P16234); experiment: as above; format: biochemical; details: FIG. 1, result in words
T3 construct: made in house; host or cells: Sf9 insect cells (baculovirus)
Excerpt: as §1, §2, §3, §4, §5

[4] = target: PDGFR-β (Homo sapiens, UniProt P09619); experiment: PDGFR-β autophosphorylation; format: cell-based; details: cellular autophosphorylation
[5] = target: T4, PDGFR-beta (Homo sapiens, UniProt P09619); experiment: radiometric protein kinase assay (33PanQinase Activity Assay); format: biochemical; details: for Inhibition of Kinases IC50 / IC50: PDGFR-beta, panel of 24 kinases, 1 μM ATP; for IC50: read-out: Inhibition of Kinases IC50
T4 construct: made in house; host or cells: Sf9 insect cells (baculovirus)
Excerpt: as §1, §2, §3
(§6) The reaction cocktails were incubated at 30° C. for 80 minutes. The reaction was stopped with 50 μl of 2% (v/v) H3PO4, plates were aspirated and washed two times with 200 μl of 0.9% (w/v) NaCl or 200 μl H2O. Incorporation of ^33Pi was determined with a microplate scintillation counter (Microbeta Trilux, Wallac). All assays were performed with a BeckmanCoulter/Sagian robotic system.
as §5

[6] = target: T1, VEGF-R2; experiment: as above; format: biochemical; set-up: made in house; host or cells: Sf9 insect cells (baculovirus); details: for Inhibition of Kinases IC50 / IC50: panel of 24 kinases, 1 μM ATP; for IC50: read-out: Inhibition of Kinases IC50
Experimental: (§7) Radicicol A (1) and analogues 3 and 31 were tested for its inhibition in a panel of 24 kinase (AKT1, ARKS, Aurora-A, Aurora-B, B-RAF-VE, CDK2/CycA, CDK4/CycD1, CK2-α1, FAK, EPHB4, ERB2, EGF-R, IGF1-R, SRC, VEGF-R2, VEGF-R3, FLT3, INS-R, MET, PDGFR-β, PLK1, SAK, TIE2, COT) at 10 μM using the procedure described below.
as §1, §2, §3, §6, §5

[7] = target: T5, FLT3 (Homo sapiens, UniProt P36888); experiment: as above; format: biochemical; details: for Inhibition of Kinases IC50 / IC50: panel of 24 kinases, 1 μM ATP; for IC50: read-out: Inhibition of Kinases IC50
T5 construct: made in house; host or cells: Sf9 insect cells (baculovirus)
T5 sequence (P36888 27-993): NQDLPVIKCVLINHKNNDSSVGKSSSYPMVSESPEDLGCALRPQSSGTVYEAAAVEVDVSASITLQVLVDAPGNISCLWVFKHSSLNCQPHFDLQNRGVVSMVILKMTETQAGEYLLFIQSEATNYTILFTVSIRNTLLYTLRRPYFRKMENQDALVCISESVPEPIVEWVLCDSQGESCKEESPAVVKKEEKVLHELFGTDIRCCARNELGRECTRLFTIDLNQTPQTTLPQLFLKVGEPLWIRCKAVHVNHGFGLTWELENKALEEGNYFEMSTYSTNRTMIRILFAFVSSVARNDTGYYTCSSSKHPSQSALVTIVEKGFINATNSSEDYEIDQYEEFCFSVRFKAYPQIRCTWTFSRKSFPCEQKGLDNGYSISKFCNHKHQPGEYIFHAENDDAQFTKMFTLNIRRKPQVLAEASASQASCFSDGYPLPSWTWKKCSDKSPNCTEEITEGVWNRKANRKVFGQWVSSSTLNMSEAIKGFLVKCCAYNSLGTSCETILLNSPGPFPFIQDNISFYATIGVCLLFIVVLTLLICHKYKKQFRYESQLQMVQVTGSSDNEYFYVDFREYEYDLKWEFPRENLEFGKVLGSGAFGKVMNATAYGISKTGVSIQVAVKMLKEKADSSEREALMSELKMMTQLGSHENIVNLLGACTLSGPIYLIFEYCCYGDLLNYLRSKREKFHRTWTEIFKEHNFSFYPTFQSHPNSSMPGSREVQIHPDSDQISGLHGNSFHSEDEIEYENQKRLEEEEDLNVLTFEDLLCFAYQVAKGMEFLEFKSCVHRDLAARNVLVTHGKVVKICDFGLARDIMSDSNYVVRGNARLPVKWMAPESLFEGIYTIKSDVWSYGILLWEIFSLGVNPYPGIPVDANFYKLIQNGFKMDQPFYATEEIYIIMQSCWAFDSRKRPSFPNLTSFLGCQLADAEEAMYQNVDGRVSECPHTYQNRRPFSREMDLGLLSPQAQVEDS
Experimental: as §7, §1, §2, §3, §6, §5

[8] = target: T6, VEGF-R3 (Homo sapiens, UniProt P35916); experiment: as above; format: biochemical; details: for Inhibition of Kinases IC50 / IC50: panel of 24 kinases, 1 μM ATP; for IC50: read-out: Inhibition of Kinases IC50
T6 construct: made in house; host or cells: Sf9 insect cells (baculovirus)
Experimental: as §7, §1, §2, §3, §6, §5

[9] = target: TIE2 (Homo sapiens, UniProt Q02763); experiment: autophosphorylation of TIE2; format: cell-based; details: cellular autophosphorylation; result in words
[10] = target: T7, B-RAF-VE (Homo sapiens, UniProt P15056, V600E); experiment: radiometric protein kinase assay (33PanQinase Activity Assay); format: biochemical; details: panel of 24 kinases, 1 μM ATP, read-out: Inhibition of Kinases IC50
T7 construct: made in house; host or cells: Sf9 insect cells (baculovirus)
Experimental: as §7, §1
(§8) A radiometric protein kinase assay (^33PanQinase® Activity Assay) was used for measuring the kinase activity of the 24 protein kinases. All kinase assays were performed in 96-well FIashPlates™ from Perkin Elmer (Boston, Mass., USA) in a 50 μl reaction volume. […]
as §4

[11] = target: T8, EPHB4 (Homo sapiens, UniProt P54760); experiment: as above; format: biochemical; details: panel of 24 kinases, 1 μM ATP, read-out: Inhibition of Kinases IC50
T8 construct: made in house; host or cells: Sf9 insect cells (baculovirus)
T8 sequence (P54760 16-987): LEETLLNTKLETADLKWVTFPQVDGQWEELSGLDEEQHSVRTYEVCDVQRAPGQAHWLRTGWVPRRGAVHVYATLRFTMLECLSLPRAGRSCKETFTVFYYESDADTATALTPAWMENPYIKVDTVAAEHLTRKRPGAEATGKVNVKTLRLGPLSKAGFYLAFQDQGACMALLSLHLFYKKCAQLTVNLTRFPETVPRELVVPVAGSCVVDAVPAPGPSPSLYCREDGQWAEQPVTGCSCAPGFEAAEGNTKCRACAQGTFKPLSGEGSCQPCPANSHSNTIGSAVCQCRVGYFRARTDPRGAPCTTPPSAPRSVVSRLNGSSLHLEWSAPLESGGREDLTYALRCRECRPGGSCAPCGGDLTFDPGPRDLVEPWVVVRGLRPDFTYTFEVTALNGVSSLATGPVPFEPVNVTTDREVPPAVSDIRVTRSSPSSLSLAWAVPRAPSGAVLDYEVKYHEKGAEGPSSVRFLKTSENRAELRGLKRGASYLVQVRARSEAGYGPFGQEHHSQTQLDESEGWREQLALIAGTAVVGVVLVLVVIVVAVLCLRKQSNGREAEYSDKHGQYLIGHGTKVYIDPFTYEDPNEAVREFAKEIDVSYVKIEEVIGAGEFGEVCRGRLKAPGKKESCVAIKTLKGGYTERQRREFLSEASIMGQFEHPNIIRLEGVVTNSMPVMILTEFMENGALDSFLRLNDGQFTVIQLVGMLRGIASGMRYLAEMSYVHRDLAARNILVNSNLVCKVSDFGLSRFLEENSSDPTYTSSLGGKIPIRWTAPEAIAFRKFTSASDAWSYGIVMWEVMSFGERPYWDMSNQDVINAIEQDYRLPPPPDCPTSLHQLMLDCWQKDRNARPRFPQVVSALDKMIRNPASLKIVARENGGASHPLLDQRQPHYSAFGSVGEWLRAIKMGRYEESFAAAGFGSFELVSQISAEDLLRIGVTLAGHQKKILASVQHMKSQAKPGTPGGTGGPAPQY
Experimental: as §7, §1, §8, §4

[12] = target: T9, SRC (Homo sapiens, UniProt P12931); experiment: as above; format: biochemical; details: panel of 24 kinases, 1 μM ATP, read-out: Inhibition of Kinases IC50
T9 construct: made in house; host or cells: Sf9 insect cells (baculovirus)
Excerpt: as §1, §2, §3, §4

[13] = panel of 127 kinases, FIG. 1, result in words

T6 sequence (P35916 25-1363): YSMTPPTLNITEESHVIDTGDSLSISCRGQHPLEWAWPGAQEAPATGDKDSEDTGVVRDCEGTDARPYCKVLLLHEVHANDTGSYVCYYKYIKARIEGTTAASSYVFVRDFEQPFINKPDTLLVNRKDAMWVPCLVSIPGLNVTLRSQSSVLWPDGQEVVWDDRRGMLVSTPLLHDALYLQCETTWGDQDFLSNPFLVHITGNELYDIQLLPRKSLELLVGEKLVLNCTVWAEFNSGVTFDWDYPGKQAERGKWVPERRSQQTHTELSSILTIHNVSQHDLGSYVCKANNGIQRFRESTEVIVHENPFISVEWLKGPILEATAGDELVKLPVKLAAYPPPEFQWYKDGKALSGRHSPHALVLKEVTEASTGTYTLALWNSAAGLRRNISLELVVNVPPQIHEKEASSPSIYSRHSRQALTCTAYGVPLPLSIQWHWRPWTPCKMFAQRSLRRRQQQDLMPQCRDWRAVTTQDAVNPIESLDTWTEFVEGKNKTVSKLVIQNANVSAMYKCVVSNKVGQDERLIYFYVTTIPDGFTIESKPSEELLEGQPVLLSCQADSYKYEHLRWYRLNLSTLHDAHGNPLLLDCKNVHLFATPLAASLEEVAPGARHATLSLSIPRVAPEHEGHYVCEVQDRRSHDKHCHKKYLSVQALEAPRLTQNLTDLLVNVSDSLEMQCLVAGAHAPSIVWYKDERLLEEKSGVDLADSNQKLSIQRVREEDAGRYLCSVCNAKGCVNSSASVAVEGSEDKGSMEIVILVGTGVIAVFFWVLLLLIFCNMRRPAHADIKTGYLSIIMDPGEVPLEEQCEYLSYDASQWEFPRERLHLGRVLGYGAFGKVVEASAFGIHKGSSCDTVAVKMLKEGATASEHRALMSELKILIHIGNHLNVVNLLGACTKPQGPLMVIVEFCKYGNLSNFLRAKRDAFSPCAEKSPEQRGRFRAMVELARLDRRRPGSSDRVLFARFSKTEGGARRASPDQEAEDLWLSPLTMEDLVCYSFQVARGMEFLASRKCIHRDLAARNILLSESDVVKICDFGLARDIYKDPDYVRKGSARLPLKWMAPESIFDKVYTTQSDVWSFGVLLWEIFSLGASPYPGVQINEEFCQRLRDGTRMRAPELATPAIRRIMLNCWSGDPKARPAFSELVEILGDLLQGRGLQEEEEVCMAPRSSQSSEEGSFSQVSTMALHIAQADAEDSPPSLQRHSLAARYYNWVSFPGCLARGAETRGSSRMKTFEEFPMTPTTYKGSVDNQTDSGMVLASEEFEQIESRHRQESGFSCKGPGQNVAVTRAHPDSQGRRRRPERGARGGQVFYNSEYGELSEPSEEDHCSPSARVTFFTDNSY
T4 sequence (P09619 33-1106): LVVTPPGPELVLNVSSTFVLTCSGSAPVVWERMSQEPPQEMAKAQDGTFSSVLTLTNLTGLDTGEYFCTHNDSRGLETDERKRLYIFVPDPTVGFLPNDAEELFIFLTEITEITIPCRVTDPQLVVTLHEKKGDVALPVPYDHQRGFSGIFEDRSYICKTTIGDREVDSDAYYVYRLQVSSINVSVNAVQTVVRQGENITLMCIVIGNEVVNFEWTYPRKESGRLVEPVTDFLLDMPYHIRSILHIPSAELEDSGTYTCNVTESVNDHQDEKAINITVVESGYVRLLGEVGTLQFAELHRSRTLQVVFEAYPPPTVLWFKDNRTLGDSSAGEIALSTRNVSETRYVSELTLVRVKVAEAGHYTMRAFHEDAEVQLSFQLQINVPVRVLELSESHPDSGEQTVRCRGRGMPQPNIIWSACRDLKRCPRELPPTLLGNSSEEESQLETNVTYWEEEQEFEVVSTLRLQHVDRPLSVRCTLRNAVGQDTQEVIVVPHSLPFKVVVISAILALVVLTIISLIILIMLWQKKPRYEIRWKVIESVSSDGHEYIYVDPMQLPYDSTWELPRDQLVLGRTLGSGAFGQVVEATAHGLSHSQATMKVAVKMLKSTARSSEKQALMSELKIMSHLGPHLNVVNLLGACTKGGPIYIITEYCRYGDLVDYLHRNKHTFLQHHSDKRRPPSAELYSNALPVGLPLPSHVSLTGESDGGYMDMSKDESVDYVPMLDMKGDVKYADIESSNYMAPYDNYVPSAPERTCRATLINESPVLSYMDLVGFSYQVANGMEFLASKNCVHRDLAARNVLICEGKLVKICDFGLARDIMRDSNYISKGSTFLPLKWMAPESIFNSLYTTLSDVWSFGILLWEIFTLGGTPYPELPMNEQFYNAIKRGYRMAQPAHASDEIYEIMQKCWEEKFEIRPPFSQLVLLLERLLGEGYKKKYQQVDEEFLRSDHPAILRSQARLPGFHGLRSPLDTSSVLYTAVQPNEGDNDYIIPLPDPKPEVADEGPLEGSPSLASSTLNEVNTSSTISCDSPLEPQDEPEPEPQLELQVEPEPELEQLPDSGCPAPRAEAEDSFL
T1 sequence (P35968 20-1356): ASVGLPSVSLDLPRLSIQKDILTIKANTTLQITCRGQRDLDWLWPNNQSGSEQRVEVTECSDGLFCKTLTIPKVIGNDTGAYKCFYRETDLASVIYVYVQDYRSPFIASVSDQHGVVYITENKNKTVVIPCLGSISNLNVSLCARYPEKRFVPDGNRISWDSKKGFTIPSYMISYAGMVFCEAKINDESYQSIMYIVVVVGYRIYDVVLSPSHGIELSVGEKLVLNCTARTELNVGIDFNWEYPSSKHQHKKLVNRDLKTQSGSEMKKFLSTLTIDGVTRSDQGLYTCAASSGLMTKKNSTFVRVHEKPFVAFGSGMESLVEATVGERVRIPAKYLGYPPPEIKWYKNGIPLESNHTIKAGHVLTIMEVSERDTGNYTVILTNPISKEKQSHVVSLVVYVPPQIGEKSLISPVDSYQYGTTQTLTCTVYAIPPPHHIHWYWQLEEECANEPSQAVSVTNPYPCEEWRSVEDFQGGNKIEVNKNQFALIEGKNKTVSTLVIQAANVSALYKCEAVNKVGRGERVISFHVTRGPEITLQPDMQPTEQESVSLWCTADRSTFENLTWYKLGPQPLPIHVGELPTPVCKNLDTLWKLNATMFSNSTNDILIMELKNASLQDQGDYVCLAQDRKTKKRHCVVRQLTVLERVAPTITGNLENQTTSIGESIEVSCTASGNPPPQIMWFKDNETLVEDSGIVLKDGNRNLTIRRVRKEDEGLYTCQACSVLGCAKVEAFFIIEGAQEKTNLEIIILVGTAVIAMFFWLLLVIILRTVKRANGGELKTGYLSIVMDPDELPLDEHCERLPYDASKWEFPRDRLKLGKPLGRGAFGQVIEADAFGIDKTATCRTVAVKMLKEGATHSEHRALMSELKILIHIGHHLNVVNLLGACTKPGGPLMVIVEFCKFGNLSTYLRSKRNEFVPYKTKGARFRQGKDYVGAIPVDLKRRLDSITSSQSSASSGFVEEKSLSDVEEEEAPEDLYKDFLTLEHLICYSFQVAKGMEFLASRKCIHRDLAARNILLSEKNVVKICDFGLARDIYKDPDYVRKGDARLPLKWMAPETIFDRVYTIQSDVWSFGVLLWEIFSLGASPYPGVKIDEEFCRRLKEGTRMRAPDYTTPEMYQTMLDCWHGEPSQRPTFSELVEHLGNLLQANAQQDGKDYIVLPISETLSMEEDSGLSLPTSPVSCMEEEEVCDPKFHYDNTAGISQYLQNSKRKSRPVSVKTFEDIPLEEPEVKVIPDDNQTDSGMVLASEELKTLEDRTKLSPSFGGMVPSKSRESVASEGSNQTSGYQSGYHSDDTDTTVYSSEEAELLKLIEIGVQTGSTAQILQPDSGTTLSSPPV
T3 sequence (P16234 24-1089): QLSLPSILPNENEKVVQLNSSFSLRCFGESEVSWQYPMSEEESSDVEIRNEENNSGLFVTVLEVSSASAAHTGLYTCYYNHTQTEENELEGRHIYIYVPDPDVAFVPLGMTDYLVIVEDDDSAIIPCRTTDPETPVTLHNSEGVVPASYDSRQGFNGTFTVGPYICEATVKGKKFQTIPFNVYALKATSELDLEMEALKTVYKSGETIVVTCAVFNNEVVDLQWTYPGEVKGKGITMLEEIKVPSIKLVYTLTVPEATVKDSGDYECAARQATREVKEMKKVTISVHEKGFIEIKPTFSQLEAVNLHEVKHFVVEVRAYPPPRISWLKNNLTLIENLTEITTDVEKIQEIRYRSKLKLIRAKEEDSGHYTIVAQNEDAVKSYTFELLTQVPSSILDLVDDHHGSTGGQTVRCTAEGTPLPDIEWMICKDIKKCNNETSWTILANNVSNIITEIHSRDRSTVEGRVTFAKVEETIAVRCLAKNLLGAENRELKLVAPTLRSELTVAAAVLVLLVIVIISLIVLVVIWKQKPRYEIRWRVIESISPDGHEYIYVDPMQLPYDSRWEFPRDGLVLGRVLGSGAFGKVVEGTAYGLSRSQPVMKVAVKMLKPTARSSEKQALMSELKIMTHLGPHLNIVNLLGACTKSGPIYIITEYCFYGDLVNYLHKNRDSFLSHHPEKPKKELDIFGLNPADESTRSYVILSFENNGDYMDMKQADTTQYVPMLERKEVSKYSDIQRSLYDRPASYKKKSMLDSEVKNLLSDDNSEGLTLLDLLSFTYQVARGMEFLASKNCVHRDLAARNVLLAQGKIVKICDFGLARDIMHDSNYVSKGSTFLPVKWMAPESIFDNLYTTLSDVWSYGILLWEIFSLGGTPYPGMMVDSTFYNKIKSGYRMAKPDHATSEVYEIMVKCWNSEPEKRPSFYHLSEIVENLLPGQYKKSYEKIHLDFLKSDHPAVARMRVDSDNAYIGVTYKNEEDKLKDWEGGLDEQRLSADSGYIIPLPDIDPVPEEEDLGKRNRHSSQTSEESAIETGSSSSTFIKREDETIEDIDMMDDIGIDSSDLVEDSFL
Sequence of PDGFR-β (P09619 33-1106, species assumed): as the sequence (P09619 33-1106) above

Structure (SMILES): COc1cc(O)c2c(c1Cl)/C=C/C[C@H](O)[C@H](O)C(=O)/C=C\C[C@H](C)OC2=O [Compound 31]
IC50 [1]: 440 nM | inhibitory activity (IC50) in a panel of 127 kinases [2]: nanomolar concentrations; also recorded: nM concentrations | inhibitory activity (IC50) in a panel of 127 kinases [3]: nanomolar concentrations; also recorded: nM concentrations | IC50 [4]: 13 µM | Inhibition of Kinases IC50 [5]: potent inhibitory activity | IC50 [5]: 370 nM | inhibitory activity (IC50) in a panel of 127 kinases ([5]; PDGFR-β, panel of 127 kinases, FIG. 1, result in words): nanomolar concentrations; also recorded: nM concentrations | Inhibition of Kinases IC50 [6]: potent inhibitory activity | IC50 [6]: 90 nM | inhibitory activity (IC50) in a panel of 127 kinases [6, 13]: nanomolar concentrations; also recorded: nM concentrations | Inhibition of Kinases IC50 [7]: potent inhibitory activity | IC50 [7]: 1800 nM | inhibitory activity (IC50) in a panel of 127 kinases [7, 13]: low micromolar concentrations; also recorded: low μM concentrations | Inhibition of Kinases IC50 [8]: potent inhibitory activity | IC50 [8]: 210 nM | inhibitory activity (IC50) in a panel of 127 kinases [8, 13]: nanomolar concentrations; also recorded: nM concentrations | autophosphorylation of TIE2 [9]: unaffected

IC50 [10]: 6.3 µM | Inhibition of Kinases IC50 [6]: potent inhibitory activity | IC50 [6]: 52 nM | Inhibition of Kinases IC50 [7]: potent inhibitory activity | IC50 [7]: 170 nM | Inhibition of Kinases IC50 [8]: potent inhibitory activity | IC50 [8]: 110 nM
Structure (SMILES): COc1cc(O)c2c(c1)/C=C/C[C@H](O)[C@H](O)C(=O)/C=C\C[C@H](C)OC2=O [Compound 3, 5-Z-7-oxozeaenol]

IC50 [11]: 9.1 µM | IC50 [12]: 9.6 µM | Inhibition of Kinases IC50 ([5]; listed as Radicicol A): potent inhibitory activity (low nM) | Inhibition of Kinases IC50 ([5]; listed as radicicol A): potent inhibitory activity | IC50 [5]: 210 nM | Inhibition of Kinases IC50 ([6]; listed as Radicicol A): potent inhibitory activity (low nM) | Inhibition of Kinases IC50 ([6]; listed as radicicol A): potent inhibitory activity | IC50 [6]: 26 nM | Inhibition of Kinases IC50 ([7]; listed as Radicicol A): potent inhibitory activity (low nM) | Inhibition of Kinases IC50 ([7]; listed as radicicol A): potent inhibitory activity | IC50 [7]: 110 nM | Inhibition of Kinases IC50 ([8]; listed as Radicicol A): potent inhibitory activity (low nM) | Inhibition of Kinases IC50 ([8]; listed as radicicol A): potent inhibitory activity | IC50 [8]: 66 nM
Structure (SMILES): COc1cc(O)c2c(c1OC)/C=C/C[C@H](O)[C@H](O)C(=O)/C=C\C[C@H](C)OC2=O [Compound 1, Radicicol A]
